Assays:
[1] = system: incorporation of azido sugar onto proteins in COS-7 cells; experiment: Metabolic feeding and Staudinger ligation with biotin phosphine, streptavidin-HRP blot; format: cell-based, African green monkey; conditions: 50 μM, 24 h
Protocol: (A) Structures of the molecules used or generated during the chemoselective ligation study (X═O or S as indicated, R═H or Ac as indicated). (B) Western blots of COS-7 cell lysates administered specified agents at 50 μM for 24 h; vehicle only (C), Ac-GlcNAz or Ac-5SGlcNAz (41). Cells were harvested and then underwent the Staudinger ligation with biotin phosphine. Blots are probed with (from top to bottom) streptavidin-HRP, anti O-GlcNAc (CTD110.6) antibody and anti-actin antibody. (C) Western blot of immunoprecipitated nup62 from cell lysates following vehicle (C), 50 μM Ac-GlcNAz or Ac-5SGlcNAz (41) treatment for 24 h. Following immunoprecipitation, nup62 was incubated with buffer (−) or with BtGH84 (+) for 2 h to remove O-GlcNAc, and then underwent the Staudinger ligation with biotin phosphine. Blots are probed with streptavidin-HRP. […]
To probe the possibility that 5SGlcNAc is being incorporated onto proteins, we used a metabolic feeding and chemoselective ligation strategy using 2-azidoacetamido-2-deoxy-D-glucopyranose (GlcNAz), which can be assimilated by the HBP to form uridine diphospho-N-azidoacetylglucosamine (UDP-GlcNAz) and then be installed onto proteins as O-GlcNAz^9. […] Accordingly, we evaluated whether 2-azidoacetamido-2-deoxy-5-thio-D-glucopyranose (5SGlcNAz) is incorporated onto proteins to determine whether 5SGlcNAc might be transferred onto proteins in cells. […]

[2] = system: EMEG32 heterozygous mouse embryonic fibroblast cells; experiment: Cell proliferation growth curves over 5 days and western blot, EMEG32 heterozygous fibroblasts; format: cell-based; conditions: EMEG32 heterozygotes, 50 μM, 5 days
Protocol: (A) Cell proliferation curves over the course of 5 days for CHO cells following no (circles), 50 μM Ac-GlcNAc (squares) or 50 μM Ac-5SGlcNAc (triangles) treatment. The error bars indicate the deviation from the mean for triplicate measurements. […] Upper panel, probed with anti-O-GlcNAc antibody (CTD110.6); lower panel, probed with anti-actin antibody. (B) Cell proliferation curves over the course of 5 days for EMEG heterozygous mouse embryonic fibroblast cells following no (circles), 50 μM Ac-GlcNAc (squares) or 50 μM Ac-5SGlcNAc (triangles) treatment. The error bars indicate the deviation from the mean for triplicate measurements. […] Upper panel, probed with anti-O-GlcNAc antibody (CTD110.6); lower panel, probed with anti-actin antibody. (C) Western blots of CHO cell lysates following no (C) or Ac-5SGlcNAc administration at 50 μM for 4 days. Probed with (from top to bottom) anti-Spl antibody, anti O-GlcNAc (CTD110.6) antibody and anti-actin antibody. Full blot of the anti-Sp 1 is shown in panel (d). (D) Western blots of CHO cell lysates following no (C) or Ac-5SGlcNAc administration at 50 μM for 4 days. The full blot probed with anti-Spl antibody is shown. (E) Western blots of COS-7 cell lysates following no (C) or 50 μM Ac-5SGlcNAc treatment for 24 h. Following treatment, the media was replaced with no inhibitor, and cells were harvested at the time points indicated (between 0 and 24 h). Upper panel, probed with anti-O-GlcNAc antibody (CTD110.6); lower panel, probed with anti-actin antibody.
Cellular responses to Ac-5SGlcNAc (9) treatment and consequent decreases in O-GlcNAc levels were evaluated. […] We quantitatively evaluated cell proliferation and established growth curves over the course of 5 days in both CHO and EMEG32 heterozygous mouse embryonic fibroblast cells treated with 50 μM Ac-5SGlcNAc (9), 50 μM Ac-GlcNAc (G), or vehicle (FIGS. 5A-B).

[3] = system: O-GlcNAc levels in COS-7 cells; experiment: Western blot of O-GlcNAc levels (CTD110.6) in treated COS-7 cells; format: cell-based, African green monkey; conditions: 50 μM, 24 h
Protocol: Cell culture: Cells were grown in an incubator at 37° C. and 5% CO2 atmosphere. Media and serum were purchased from Invitrogen. COS-7 cells were cultured in Dulbecco's modified Eagle's medium (DMEM) with 5% fetal bovine serum (FBS), and were typically 80-100% confluent prior to experimentation. HepG2, SK-N-SH, and EMEG32^−/− cells were cultured in Dulbecco's modified Eagle's medium (DMEM) with 5% fetal bovine serum (FBS), CHO cells in DMEMF-12 with 5% FBS and PC12 cells in DMEM with 5% FBS and 5% horse serum. Prior to experimentation, PC12 cells were plated at a density of 3-4×10^5 cells10 cm plate, which had been pre-treated with 5 μgcm^2 rat tail collagen (BD Biosciences). Cells were differentiated in DMEM containing 1% horse serum, in the presence of 2.5S mouse nerve growth factor (Chemicon) at a final concentration of 25 ng mL^−1, for 4-5 days prior to treatment. Other cell lines were 80-100% confluent prior to treatment. Following treatment with (Ac-)5SGlcNAc, using various conditions, cells were washed gently with PBS, lysed in SDS loading buffer and boiled for 10 minutes. Mouse hybridoma cells (obtained from the Developmental Studies Hybridoma Bank; antibody E7 for (:1-tubulin) were cultured in RPMI40 with 10% FBS. Prior to treatment with Ac-5SGlcNAc, hybridoma cells were cultured for 2 days in RPMI40 with 5% FBS, and during treatment in RPMI40 with no serum. Cells were collected, centrifuged (800 x g, 5 min) and the supernatant removed. Cells were washed with PBS, centrifuged, the pellet resuspended in SDS loading buffer and boiled. The supernatant after centrifugation, which contained the IgG antibody produced by the cells, was used for immunoprecipitation (see below for details).
Westernlectin blots: Samples were run on 10% SDS polyacrylamide gels and transferred onto nitrocellulose membranes (Biorad). Membranes were blocked for 1 h in PBS containing 0.1% Tween-20 (PBS-T) containing 1% (unless otherwise stated) bovine serum albumin (BSA), and probed with the appropriate primary antibody or lectin in 1% BSA in PBS-T overnight at 4° C. Blots were washed for 1 hr with PBS-T, and blocked for a further 30 min with 1% BSA in PBS-T at room temperature. They were then probed with the appropriate horseradish peroxidise (HRP)-conjugated secondary antibodyprobe in 1% BSA in PBS-T at room temperature for 1 h, followed by washing in PBS-T for 1 h. Blots were developed with SuperSignal West Pico Chemiluminescent Substrate (Pierce) and exposed to CL-XPosure film (Pierce). Densitometry was performed using ImageQuant 5.2 (Molecular Dynamics), and fits to the data were made using GRAFIT^41.
Antibodieslectins: O-GlcNAc levels were assessed primarily using CTD110.6 (Covance), but RL2 (Abcam) and HGAC85 (Abcam) were also tested. Actin was probed using JLA20 (Developmental Studies Hybridoma Bank). OGA levels were assessed using a polyclonal anti-OGA antibody which was a kind gift from Dr. Gerald Hart and OGT levels using H-300 (Santa Cruz Biotechnology). nup62 was probed using mAb 414 (Covance). Secondary antibodies employed (HRP-conjugated goat anti-mouse IgM, goat anti-mouse IgG, goat anti-chicken IgY and goat anti-rabbit IgG) were obtained from Santa Cruz Biotechnology. Biotinylated-ConA, PHA-L, SNA and MAA were purchased from EY Laboratories, and biotinylated-GNA from Vector Laboratories. HRP-conjugated streptavidin (Pierce) was used as a probe for the biotinylated lectins.
Analogues (9, 10, 17-41) were tested in COS-7 cells, dosed at a final concentration of 50 μM in DMSO for 24 h. Following treatment, cells were washed with PBS, harvested into SDS-PAGE loading buffer and analyzed by western blot using standard procedures; blots were probed with the anti-O-GlcNAc antibody (CTD 110.6).

[4] = system: O-GlcNAc levels in mice tissues; experiment: O-GlcNAc levels in mouse tissues after intraperitoneal dosing; format: in vivo; conditions: 300 mg/kg intraperitoneally, 16 hours
Protocol: Ac-5SGlcNAc 9 and the deprotected analogue with the hexyl substituent at the C2 position 28 have been analyzed for effectiveness at decreasing O-GlcNAc levels in mice. Pilot studies were conducted with mice dosed in triplicate with either compound or vehicle alone. Compounds were dosed at 300 mg/kg intraperitoneally using 75% DMSO as vehicle for delivery of 9 and phosphate-buffered saline (PBS) for delivery of 28. Mice were euthanized using a CO2 chamber after 16 hours exposure to either compound, and tissues (liver, lung, heart, kidney, spleen, pancreas, brain, blood, fat and muscle) harvested and flash frozen in liquid nitrogen. Frozen tissues were ground using a pestle and mortar, and resuspended in cell lysis buffer (50 mM NaH2PO4, 150 mM NaCl, 0.1% SDS, 1% NP-40, 0.25% sodium deoxycholate, 1 mM EDTA, 30 mM sodium fluoride, 30 mM β-glycerophosphate, 5 mM sodium pyrophosphate, 1 mM Thiamet-G, protease inhibitor cocktail (Roche)) at a concentration of 100 mg tissue1 mL buffer prior to homogenization. Homogenates were centrifuged at 13,000 rpm for 20 min, the supernatant removed, added to 2×SDS-PAGE loading buffer and boiled for […]. SDS-PAGE and western blots were performed using standard procedures. Blots were probed using anti-O-GlcNAc antibody (CTD110.6, Santa Cruz Biotechnology) and anti-actin antibody for a loading control.

Compound | streptavidin signal after Staudinger ligation (accumulation of azido sugar on proteins) [1] | growth rate [2] | effect on O-GlcNAc levels at single dose [3] | O-GlcNAc levels in tissues [4] | extent of decrease of O-GlcNAc levels relative to parent compound 9 [3]
2-azidoacetamido-2-deoxy-5-thio-D-glucopyranose [Compound 5SGlcNAz] | does not accumulate on proteins to any measurable level |  |  |  | 
CC(=O)N[C@H]1[C@H](OC(C)=O)O[C@H](COC(C)=O)[C@@H](OC(C)=O)[C@@H]1OC(C)=O [Ac-GlcNAc, reference compound] |  | indistinguishable but were both lower than vehicle treated cells |  |  | 
CC(=O)OC[C@H]1O[C@H](OC(C)=O)[C@H](NC(=O)CN=[N+]=[N-])[C@@H](OC(C)=O)[C@@H]1OC(C)=O [Ac-GlcNAz, 1,3,4,6-tetra-O-acetyl-2-azidoacetamido-2-deoxy-ot-D-glucopyranose, reference compound] | Only proteins from cells treated with Ac-GlcNAz revealed any signal |  | only 5SGlcNAz decreased O-GlcNAc levels |  | 
CCCCCC(=O)NC1C(O)SC(CO)C(O)C1O [Compound 28, N-Hexonoyl-a-D-5-thio-glucosamine] |  |  | decreased O-GlcNAc levels in cells | effective at decreasing O-GlcNAc levels during the 16 hour dosing period in the liver, lung, heart, kidney, spleen, pancreas, fat and muscle | comparable extent to the parent compound
